# Source: ChEMBL document CHEMBL2150937, “Elaiomycins D-F, antimicrobial and cytotoxic azoxides from Streptomyces sp. strain HKI0708” (J Nat Prod, 2012)
# Tested on: Bacillus subtilis
# Experiment: Antibacterial activity against Bacillus subtilis 6633 B1 assessed as zone of inhibition at 50 ug/disc after 24 hrs by agar diffusion assay
# Type: functional
# Settings: 6633 B1, 24 h, read-out: IZ
row,SMILES,zone of inhibition at 50 µg/disc [mm]
1,CCCCCC/C=C\[N+]([O-])=N\[C@@H](COC)[C@H](C)O [ELAIOMYCIN],10
2,CCCCCC(O)/C=C/[N+]([O-])=N/[C@@H](COC)[C@H](C)O (stereo partly specified) [ELAIOMYCIN E],10

# Tested on: Escherichia coli
# Experiment: Antibacterial activity against Escherichia coli 458 B4 assessed as zone of inhibition at 50 ug/disc after 24 hrs by agar diffusion assay
# Type: functional
# Settings: 458 B4, 24 h, read-out: IZ
row,SMILES,zone of inhibition at 50 µg/disc [mm]
1,CCCCCC/C=C\[N+]([O-])=N\[C@@H](COC)[C@H](C)O [ELAIOMYCIN],0
2,CCCCCC(O)/C=C/[N+]([O-])=N/[C@@H](COC)[C@H](C)O (stereo partly specified) [ELAIOMYCIN E],0

# Tested on: HeLa
# Experiment: Cytotoxicity against human HeLa cells
# Type: functional
# Settings: not given
row,SMILES,CC50 [mg/L]
1,CCCCCC/C=C\[N+]([O-])=N\[C@@H](COC)[C@H](C)O [ELAIOMYCIN],35.1
2,CCCCCC(O)/C=C/[N+]([O-])=N/[C@@H](COC)[C@H](C)O (stereo partly specified) [ELAIOMYCIN E],> 50

# Tested on: Mycolicibacterium vaccae
# Experiment: Antibacterial activity against Mycobacterium vaccae 10670 M4 assessed as zone of inhibition at 50 ug/disc after 24 hrs by agar diffusion assay
# Type: functional
# Settings: 10670 M4, 24 h, read-out: IZ
row,SMILES,zone of inhibition at 50 µg/disc [mm]
1,CCCCCC/C=C\[N+]([O-])=N\[C@@H](COC)[C@H](C)O [ELAIOMYCIN],14
2,CCCCCC(O)/C=C/[N+]([O-])=N/[C@@H](COC)[C@H](C)O (stereo partly specified) [ELAIOMYCIN E],0

# Tested on: not listed separately
# Experiment: Cytotoxicity against human PAXF 1657L cells by propidium iodide-based fluorescence assay
# Type: functional, cell-based
# Settings: not given
row,SMILES,IC50 [µM]
1,CCCCCC/C=C\[N+]([O-])=N\[C@@H](COC)[C@H](C)O [ELAIOMYCIN],20.2

# Tested on: not listed separately
# Experiment: Cytotoxicity against human GXF251L cells by propidium iodide-based fluorescence assay
# Type: functional, cell-based
# Settings: GXF 251L
row,SMILES,IC50 [µM]
1,CCCCCC/C=C\[N+]([O-])=N\[C@@H](COC)[C@H](C)O [ELAIOMYCIN],7.97

# Tested on: not listed separately
# Experiment: Cytotoxicity against human PXF 1752L cells by propidium iodide-based fluorescence assay
# Type: functional, cell-based
# Settings: not given
row,SMILES,IC50 [µM]
1,CCCCCC/C=C\[N+]([O-])=N\[C@@H](COC)[C@H](C)O [ELAIOMYCIN],10.2

# Tested on: Aspergillus niger
# Experiment: Antifungal activity against Aspergillus niger DSM 737 assessed as zone of inhibition at 50 ug/disc after 24 hrs by agar diffusion assay
# Type: functional
# Settings: DSM 737, 24 h, read-out: IZ
row,SMILES,zone of inhibition at 50 µg/disc [mm]
1,CCCCCC/C=C\[N+]([O-])=N\[C@@H](COC)[C@H](C)O [ELAIOMYCIN],0
2,CCCCCC(O)/C=C/[N+]([O-])=N/[C@@H](COC)[C@H](C)O (stereo partly specified) [ELAIOMYCIN E],0

# Tested on: Aspergillus terreus
# Experiment: Antifungal activity against amphotericin-resistant Aspergillus terreus DSM 826 assessed as zone of inhibition at 50 ug/disc after 24 hrs by agar diffusion assay
# Type: functional
# Settings: DSM 826, 24 h, read-out: IZ
row,SMILES,zone of inhibition at 50 µg/disc [mm]
1,CCCCCC/C=C\[N+]([O-])=N\[C@@H](COC)[C@H](C)O [ELAIOMYCIN],0
2,CCCCCC(O)/C=C/[N+]([O-])=N/[C@@H](COC)[C@H](C)O (stereo partly specified) [ELAIOMYCIN E],0

# Tested on: not listed separately
# Experiment: Cytotoxicity against human LXFA 629L cells by propidium iodide-based fluorescence assay
# Type: functional, cell-based
# Settings: not given
row,SMILES,IC50 [µM]
1,CCCCCC/C=C\[N+]([O-])=N\[C@@H](COC)[C@H](C)O [ELAIOMYCIN],9.24

# Tested on: Enterococcus faecalis
# Experiment: Antibacterial activity against vancomycin-resistant Enterococcus faecalis 1528 R10 assessed as zone of inhibition at 50 ug/disc after 24 hrs by agar diffusion assay
# Type: functional
# Settings: 1528 R10, 24 h, read-out: IZ
row,SMILES,zone of inhibition at 50 µg/disc [mm]
1,CCCCCC/C=C\[N+]([O-])=N\[C@@H](COC)[C@H](C)O [ELAIOMYCIN],0
2,CCCCCC(O)/C=C/[N+]([O-])=N/[C@@H](COC)[C@H](C)O (stereo partly specified) [ELAIOMYCIN E],10

# Tested on: not listed separately
# Experiment: Cytotoxicity against human MEXF 462NL cells by propidium iodide-based fluorescence assay
# Type: functional, cell-based
# Settings: not given
row,SMILES,IC50 [µM]
1,CCCCCC/C=C\[N+]([O-])=N\[C@@H](COC)[C@H](C)O [ELAIOMYCIN],10.4

# Tested on: not listed separately
# Experiment: Cytotoxicity against human CXF HT29 cells by propidium iodide-based fluorescence assay
# Type: functional, cell-based
# Settings: HT-29
row,SMILES,IC50 [µM]
1,CCCCCC/C=C\[N+]([O-])=N\[C@@H](COC)[C@H](C)O [ELAIOMYCIN],9.72

# Tested on: HUVEC
# Experiment: Antiproliferative activity against HUVEC
# Type: functional
# Settings: Homo sapiens
row,SMILES,GI50 [mg/L]
1,CCCCCC/C=C\[N+]([O-])=N\[C@@H](COC)[C@H](C)O [ELAIOMYCIN],30.4
2,CCCCCC(O)/C=C/[N+]([O-])=N/[C@@H](COC)[C@H](C)O (stereo partly specified) [ELAIOMYCIN E],31.2

# Tested on: Pseudomonas aeruginosa
# Experiment: Antibacterial activity against Pseudomonas aeruginosa K 799/61 B9 assessed as zone of inhibition at 50 ug/disc after 24 hrs by agar diffusion assay
# Type: functional
# Settings: K 799/61 B9, 24 h, read-out: IZ
row,SMILES,zone of inhibition at 50 µg/disc [mm]
1,CCCCCC/C=C\[N+]([O-])=N\[C@@H](COC)[C@H](C)O [ELAIOMYCIN],0
2,CCCCCC(O)/C=C/[N+]([O-])=N/[C@@H](COC)[C@H](C)O (stereo partly specified) [ELAIOMYCIN E],0

# Tested on: not listed separately
# Experiment: Cytotoxicity against human UXF 1138L cells by propidium iodide-based fluorescence assay
# Type: functional, cell-based
# Settings: not given
row,SMILES,IC50 [µM]
1,CCCCCC/C=C\[N+]([O-])=N\[C@@H](COC)[C@H](C)O [ELAIOMYCIN],14.7

# Tested on: Sporobolomyces salmonicolor
# Experiment: Antifungal activity against Sporidiobolus salmonicolor 549 H4 assessed as zone of inhibition at 50 ug/disc after 24 hrs by agar diffusion assay
# Type: functional
# Settings: 549 H4, 24 h, read-out: IZ
row,SMILES,zone of inhibition at 50 µg/disc [mm]
1,CCCCCC/C=C\[N+]([O-])=N\[C@@H](COC)[C@H](C)O [ELAIOMYCIN],12
2,CCCCCC(O)/C=C/[N+]([O-])=N/[C@@H](COC)[C@H](C)O (stereo partly specified) [ELAIOMYCIN E],0

# Tested on: not listed separately
# Experiment: Cytotoxicity against human MAXF 401NL cells by propidium iodide-based fluorescence assay
# Type: functional, cell-based
# Settings: not given
row,SMILES,IC50 [µM]
1,CCCCCC/C=C\[N+]([O-])=N\[C@@H](COC)[C@H](C)O [ELAIOMYCIN],10.8

# Tested on: not listed separately
# Experiment: Cytotoxicity against human RXF 486L cells by propidium iodide-based fluorescence assay
# Type: functional, cell-based
# Settings: not given
row,SMILES,IC50 [µM]
1,CCCCCC/C=C\[N+]([O-])=N\[C@@H](COC)[C@H](C)O [ELAIOMYCIN],> 30

# Tested on: Penicillium chrysogenum
# Experiment: Antifungal activity against Penicillium notatum JP36 P1 assessed as zone of inhibition at 50 ug/disc after 24 hrs by agar diffusion assay
# Type: functional
# Settings: JP36 P1, 24 h, read-out: IZ
row,SMILES,zone of inhibition at 50 µg/disc [mm]
1,CCCCCC/C=C\[N+]([O-])=N\[C@@H](COC)[C@H](C)O [ELAIOMYCIN],0
2,CCCCCC(O)/C=C/[N+]([O-])=N/[C@@H](COC)[C@H](C)O (stereo partly specified) [ELAIOMYCIN E],0

# Tested on: Aspergillus fumigatus
# Experiment: Antifungal activity against Aspergillus fumigatus ATCC 46645 assessed as zone of inhibition at 50 ug/disc after 24 hrs by agar diffusion assay
# Type: functional
# Settings: ATCC 46645, 24 h, read-out: IZ
row,SMILES,zone of inhibition at 50 µg/disc [mm]
1,CCCCCC/C=C\[N+]([O-])=N\[C@@H](COC)[C@H](C)O [ELAIOMYCIN],0
2,CCCCCC(O)/C=C/[N+]([O-])=N/[C@@H](COC)[C@H](C)O (stereo partly specified) [ELAIOMYCIN E],0

# Tested on: Staphylococcus aureus
# Experiment: Antibacterial activity against Staphylococcus aureus 511 B3 assessed as zone of inhibition at 50 ug/disc after 24 hrs by agar diffusion assay
# Type: functional
# Settings: 511 B3, 24 h, read-out: IZ
row,SMILES,zone of inhibition at 50 µg/disc [mm]
1,CCCCCC/C=C\[N+]([O-])=N\[C@@H](COC)[C@H](C)O [ELAIOMYCIN],0
2,CCCCCC(O)/C=C/[N+]([O-])=N/[C@@H](COC)[C@H](C)O (stereo partly specified) [ELAIOMYCIN E],0

# Tested on: Candida albicans
# Experiment: Antifungal activity against Candida albicans H8 assessed as zone of inhibition at 50 ug/disc after 24 hrs by agar diffusion assay
# Type: functional
# Settings: H8, 24 h, read-out: IZ
row,SMILES,zone of inhibition at 50 µg/disc [mm]
1,CCCCCC/C=C\[N+]([O-])=N\[C@@H](COC)[C@H](C)O [ELAIOMYCIN],0
2,CCCCCC(O)/C=C/[N+]([O-])=N/[C@@H](COC)[C@H](C)O (stereo partly specified) [ELAIOMYCIN E],0

# Tested on: Staphylococcus aureus
# Experiment: Antibacterial activity against methicillin-resistant Staphylococcus aureus 134/93 R9 assessed as zone of inhibition at 50 ug/disc after 24 hrs by agar diffusion assay
# Type: functional
# Settings: 134/93 R9, 24 h, read-out: IZ
row,SMILES,zone of inhibition at 50 µg/disc [mm]
1,CCCCCC/C=C\[N+]([O-])=N\[C@@H](COC)[C@H](C)O [ELAIOMYCIN],0
2,CCCCCC(O)/C=C/[N+]([O-])=N/[C@@H](COC)[C@H](C)O (stereo partly specified) [ELAIOMYCIN E],0

# Tested on: not listed separately
# Experiment: Cytotoxicity against human LXFL 529L cells by propidium iodide-based fluorescence assay
# Type: functional, cell-based
# Settings: not given
row,SMILES,IC50 [µM]
1,CCCCCC/C=C\[N+]([O-])=N\[C@@H](COC)[C@H](C)O [ELAIOMYCIN],14.7

# Tested on: not listed separately
# Experiment: Cytotoxicity against human PRXF 22Rv1 cells by propidium iodide-based fluorescence assay
# Type: functional, cell-based, CWR22R
# Settings: not given
row,SMILES,IC50 [µM]
1,CCCCCC/C=C\[N+]([O-])=N\[C@@H](COC)[C@H](C)O [ELAIOMYCIN],9.21

# Tested on: not listed separately
# Experiment: Cytotoxicity against human OVXF 899L cells by propidium iodide-based fluorescence assay
# Type: functional, cell-based
# Settings: not given
row,SMILES,IC50 [µM]
1,CCCCCC/C=C\[N+]([O-])=N\[C@@H](COC)[C@H](C)O [ELAIOMYCIN],11.8

# Tested on: Pseudomonas aeruginosa
# Experiment: Antibacterial activity against Pseudomonas aeruginosa SG 137 B7 assessed as zone of inhibition at 50 ug/disc after 24 hrs by agar diffusion assay
# Type: functional
# Settings: SG 137 B7, 24 h, read-out: IZ
row,SMILES,zone of inhibition at 50 µg/disc [mm]
1,CCCCCC/C=C\[N+]([O-])=N\[C@@H](COC)[C@H](C)O [ELAIOMYCIN],0
2,CCCCCC(O)/C=C/[N+]([O-])=N/[C@@H](COC)[C@H](C)O (stereo partly specified) [ELAIOMYCIN E],10

# Tested on: K562
# Experiment: Antiproliferative activity against human K562 cells
# Type: functional
# Settings: not given
row,SMILES,GI50 [mg/L]
1,CCCCCC/C=C\[N+]([O-])=N\[C@@H](COC)[C@H](C)O [ELAIOMYCIN],> 50
2,CCCCCC(O)/C=C/[N+]([O-])=N/[C@@H](COC)[C@H](C)O (stereo partly specified) [ELAIOMYCIN E],30.3
